Reference: patent US9156845B2, “4-(substituted amino)-7H-pyrrolo[2,3-d] pyrimidines as LRRK2 inhibitors” (Pfizer Inc., priority 2012, dated 2015)
Read-outs that look alike come from different tables or passages of the source.

Tests used:
Assay in all cases: ActivX kinase probe assay (human PBMC)
Type in all cases: binding
FRAP = FRAP (Homo sapiens (Human), UniProt P42345); conditions: read-out: percent inhibition
smMLCK = smMLCK (Homo sapiens (Human), UniProt Q15746); conditions: read-out: percent inhibition
Sequence of smMLCK (Q15746 whole entry, the tested form may be a part): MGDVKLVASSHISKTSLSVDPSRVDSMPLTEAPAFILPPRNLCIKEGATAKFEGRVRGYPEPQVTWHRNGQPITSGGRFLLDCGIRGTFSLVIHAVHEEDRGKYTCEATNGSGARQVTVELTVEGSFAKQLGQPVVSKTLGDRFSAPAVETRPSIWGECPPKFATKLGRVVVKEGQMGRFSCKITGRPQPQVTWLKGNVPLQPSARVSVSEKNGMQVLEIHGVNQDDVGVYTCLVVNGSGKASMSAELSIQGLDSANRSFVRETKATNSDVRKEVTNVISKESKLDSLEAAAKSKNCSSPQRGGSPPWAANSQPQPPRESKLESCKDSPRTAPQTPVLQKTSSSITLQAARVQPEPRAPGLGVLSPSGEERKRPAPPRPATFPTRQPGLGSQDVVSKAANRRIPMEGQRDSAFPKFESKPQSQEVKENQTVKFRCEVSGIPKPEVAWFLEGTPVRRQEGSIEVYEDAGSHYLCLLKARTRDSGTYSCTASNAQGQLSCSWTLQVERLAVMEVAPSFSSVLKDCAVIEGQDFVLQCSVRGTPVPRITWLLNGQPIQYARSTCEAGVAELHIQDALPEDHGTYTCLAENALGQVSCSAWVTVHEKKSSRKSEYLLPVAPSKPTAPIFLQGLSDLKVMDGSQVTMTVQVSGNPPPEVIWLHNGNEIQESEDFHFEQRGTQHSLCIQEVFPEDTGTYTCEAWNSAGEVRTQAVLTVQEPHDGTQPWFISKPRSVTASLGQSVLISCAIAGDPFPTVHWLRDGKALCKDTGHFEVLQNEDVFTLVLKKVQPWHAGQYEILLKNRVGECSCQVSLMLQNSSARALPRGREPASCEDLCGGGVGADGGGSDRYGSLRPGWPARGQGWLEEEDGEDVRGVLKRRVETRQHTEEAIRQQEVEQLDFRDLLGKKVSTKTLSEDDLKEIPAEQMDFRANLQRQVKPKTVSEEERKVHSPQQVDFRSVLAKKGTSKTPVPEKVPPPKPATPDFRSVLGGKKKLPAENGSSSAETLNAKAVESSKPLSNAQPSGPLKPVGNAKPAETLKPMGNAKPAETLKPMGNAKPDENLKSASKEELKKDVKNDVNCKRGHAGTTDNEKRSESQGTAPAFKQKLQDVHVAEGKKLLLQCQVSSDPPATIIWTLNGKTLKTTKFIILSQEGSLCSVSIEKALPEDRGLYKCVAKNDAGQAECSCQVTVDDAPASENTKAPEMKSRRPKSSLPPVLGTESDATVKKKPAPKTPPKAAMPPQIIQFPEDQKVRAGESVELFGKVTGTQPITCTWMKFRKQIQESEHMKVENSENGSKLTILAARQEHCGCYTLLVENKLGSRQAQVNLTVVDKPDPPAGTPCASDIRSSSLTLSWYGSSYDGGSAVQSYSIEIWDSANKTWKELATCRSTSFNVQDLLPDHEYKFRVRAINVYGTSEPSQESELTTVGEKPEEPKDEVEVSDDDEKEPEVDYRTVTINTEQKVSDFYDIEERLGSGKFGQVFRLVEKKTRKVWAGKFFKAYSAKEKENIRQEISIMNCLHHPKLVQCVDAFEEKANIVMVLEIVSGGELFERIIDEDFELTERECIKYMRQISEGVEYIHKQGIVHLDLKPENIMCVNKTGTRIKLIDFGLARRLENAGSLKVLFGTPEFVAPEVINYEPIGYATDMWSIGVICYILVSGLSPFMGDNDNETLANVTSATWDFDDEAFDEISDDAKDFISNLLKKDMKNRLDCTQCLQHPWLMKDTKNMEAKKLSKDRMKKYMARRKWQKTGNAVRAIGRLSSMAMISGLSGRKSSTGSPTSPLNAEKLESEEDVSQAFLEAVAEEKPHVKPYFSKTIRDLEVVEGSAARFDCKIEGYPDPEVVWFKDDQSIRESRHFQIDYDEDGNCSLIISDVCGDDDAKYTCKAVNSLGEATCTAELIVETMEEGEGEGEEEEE

JAK2 domain2 = JAK2 domain2 (Homo sapiens (Human), UniProt O60674); conditions: read-out: percent inhibition
Wnk1, Wnk2, Wnk3 = test system: Wnk1, Wnk2, Wnk3
ZAP70 = ZAP70 (Homo sapiens (Human), UniProt P43403); conditions: read-out: percent inhibition
FES = FES (Homo sapiens (Human), UniProt P07332); conditions: read-out: percent inhibition
p70S6K, p70S6Kb = test system: p70S6K, p70S6Kb
IKKb = IKKb (Homo sapiens (Human), UniProt O14920); conditions: read-out: percent inhibition
LYN = LYN (Homo sapiens (Human), UniProt P07948); conditions: read-out: percent inhibition
IKKa = IKKa (Homo sapiens (Human), UniProt O15111); conditions: read-out: percent inhibition
Sequence of IKKa (O15111 whole entry): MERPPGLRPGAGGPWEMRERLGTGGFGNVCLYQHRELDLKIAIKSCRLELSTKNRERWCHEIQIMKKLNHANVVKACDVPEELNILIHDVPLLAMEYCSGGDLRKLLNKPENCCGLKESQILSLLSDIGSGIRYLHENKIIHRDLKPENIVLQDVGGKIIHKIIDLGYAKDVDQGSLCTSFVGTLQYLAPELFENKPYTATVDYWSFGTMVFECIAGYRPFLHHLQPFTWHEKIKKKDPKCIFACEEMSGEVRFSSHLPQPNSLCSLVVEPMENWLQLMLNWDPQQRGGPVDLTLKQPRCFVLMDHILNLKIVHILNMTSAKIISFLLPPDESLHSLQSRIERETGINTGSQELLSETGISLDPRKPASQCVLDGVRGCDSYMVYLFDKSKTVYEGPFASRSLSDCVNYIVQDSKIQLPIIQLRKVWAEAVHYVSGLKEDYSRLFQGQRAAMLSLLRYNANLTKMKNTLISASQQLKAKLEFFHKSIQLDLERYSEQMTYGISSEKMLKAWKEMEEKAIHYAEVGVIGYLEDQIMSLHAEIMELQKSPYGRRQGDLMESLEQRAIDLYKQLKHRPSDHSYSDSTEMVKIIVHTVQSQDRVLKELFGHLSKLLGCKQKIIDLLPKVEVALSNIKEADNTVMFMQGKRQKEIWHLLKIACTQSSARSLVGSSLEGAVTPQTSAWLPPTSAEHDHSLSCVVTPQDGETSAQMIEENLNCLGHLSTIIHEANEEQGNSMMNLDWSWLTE

ABL, ARG = test system: ABL, ARG
TLK1 = TLK1 (Homo sapiens (Human), UniProt Q9UKI8); conditions: read-out: percent inhibition
[1] = test system: ZC1/HGK, ZC2/TNIK, ZC3/MINK
IRAK1 = IRAK1 (Homo sapiens (Human), UniProt P51617); conditions: read-out: percent inhibition
Sequence of IRAK1 (P51617 whole entry): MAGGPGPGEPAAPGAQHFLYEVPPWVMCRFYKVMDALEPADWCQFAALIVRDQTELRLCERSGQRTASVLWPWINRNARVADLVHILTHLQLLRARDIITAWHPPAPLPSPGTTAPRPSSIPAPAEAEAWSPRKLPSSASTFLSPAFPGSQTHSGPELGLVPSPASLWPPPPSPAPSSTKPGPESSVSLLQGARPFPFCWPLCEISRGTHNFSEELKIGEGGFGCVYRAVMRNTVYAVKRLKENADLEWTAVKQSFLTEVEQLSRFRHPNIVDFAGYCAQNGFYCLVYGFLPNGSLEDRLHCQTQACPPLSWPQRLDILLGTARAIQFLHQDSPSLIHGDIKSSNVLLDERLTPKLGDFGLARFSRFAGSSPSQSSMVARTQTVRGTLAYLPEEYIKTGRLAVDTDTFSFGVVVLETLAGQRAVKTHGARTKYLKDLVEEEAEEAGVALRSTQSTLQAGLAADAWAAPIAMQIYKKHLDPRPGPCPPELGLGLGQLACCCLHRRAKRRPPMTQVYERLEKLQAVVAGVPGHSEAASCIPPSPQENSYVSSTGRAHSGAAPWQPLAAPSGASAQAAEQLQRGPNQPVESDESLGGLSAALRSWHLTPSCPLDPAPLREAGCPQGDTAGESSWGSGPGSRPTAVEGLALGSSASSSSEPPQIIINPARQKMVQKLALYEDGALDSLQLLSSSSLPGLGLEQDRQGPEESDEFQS

CaMK2d = CaMK2d (Homo sapiens (Human), UniProt Q13557); conditions: read-out: percent inhibition
ACK = ACK (Homo sapiens (Human), UniProt Q07912); conditions: read-out: percent inhibition
Sequence of ACK (Q07912 whole entry): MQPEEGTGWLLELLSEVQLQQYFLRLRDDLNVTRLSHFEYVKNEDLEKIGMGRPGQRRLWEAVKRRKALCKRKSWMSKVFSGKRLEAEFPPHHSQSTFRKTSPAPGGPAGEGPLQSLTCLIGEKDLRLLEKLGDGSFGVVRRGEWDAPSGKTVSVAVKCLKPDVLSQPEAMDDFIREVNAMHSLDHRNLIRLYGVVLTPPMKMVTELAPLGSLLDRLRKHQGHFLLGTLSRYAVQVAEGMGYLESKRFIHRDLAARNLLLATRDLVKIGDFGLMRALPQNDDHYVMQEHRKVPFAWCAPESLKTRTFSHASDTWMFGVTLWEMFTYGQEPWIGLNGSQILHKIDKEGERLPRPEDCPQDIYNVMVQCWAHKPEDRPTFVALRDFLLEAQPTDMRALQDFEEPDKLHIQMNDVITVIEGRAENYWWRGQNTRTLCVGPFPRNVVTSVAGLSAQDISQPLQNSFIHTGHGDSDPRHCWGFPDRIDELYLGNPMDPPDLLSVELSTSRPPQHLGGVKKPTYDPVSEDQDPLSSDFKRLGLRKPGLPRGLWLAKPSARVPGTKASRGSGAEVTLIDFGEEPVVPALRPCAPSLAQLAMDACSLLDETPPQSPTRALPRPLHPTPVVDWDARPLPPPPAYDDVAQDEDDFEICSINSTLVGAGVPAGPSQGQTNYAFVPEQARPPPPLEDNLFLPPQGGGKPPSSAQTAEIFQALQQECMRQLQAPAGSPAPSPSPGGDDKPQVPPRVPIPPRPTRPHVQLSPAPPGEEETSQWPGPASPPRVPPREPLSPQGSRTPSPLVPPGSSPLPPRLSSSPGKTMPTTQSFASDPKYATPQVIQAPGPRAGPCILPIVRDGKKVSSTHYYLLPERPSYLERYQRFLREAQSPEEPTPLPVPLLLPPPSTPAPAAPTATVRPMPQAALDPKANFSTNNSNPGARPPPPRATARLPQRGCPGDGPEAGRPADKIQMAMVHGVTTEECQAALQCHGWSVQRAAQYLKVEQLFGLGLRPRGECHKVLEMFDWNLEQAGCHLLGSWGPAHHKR

MLKL = MLKL (Homo sapiens (Human), UniProt Q8NB16); conditions: read-out: percent inhibition
PKR = PKR (Homo sapiens (Human), UniProt P19525); conditions: read-out: percent inhibition
FYN = FYN (Homo sapiens (Human), UniProt P06241); conditions: read-out: percent inhibition
PCTAIRE2, PCTAIRE3 = test system: PCTAIRE2, PCTAIRE3
SYK = SYK (Homo sapiens (Human), UniProt P43405); conditions: read-out: percent inhibition
KHS1 = KHS1 (Homo sapiens (Human), UniProt Q9Y4K4); conditions: read-out: percent inhibition
Erk5 = Erk5 (Homo sapiens (Human), UniProt Q13164); conditions: read-out: percent inhibition
PAN3 = PAN3 (Homo sapiens (Human), UniProt Q58A45); conditions: read-out: percent inhibition
Wnk1, Wnk2, Wnk4 = test system: Wnk1, Wnk2, Wnk4
PKD2 = PKD2 (Homo sapiens (Human), UniProt Q9BZL6); conditions: read-out: percent inhibition
FGR = FGR (Homo sapiens (Human), UniProt P09769); conditions: read-out: percent inhibition
LKB1 = LKB1 (Homo sapiens (Human), UniProt Q15831); conditions: read-out: percent inhibition
FAK = FAK (Homo sapiens (Human), UniProt Q05397); conditions: read-out: percent inhibition
ILK = ILK (Homo sapiens (Human), UniProt Q13418); conditions: read-out: percent inhibition
SGK3 = SGK3 (Homo sapiens (Human), UniProt Q96BR1); conditions: read-out: percent inhibition
p70S6Kb = p70S6Kb (Homo sapiens (Human), UniProt Q9UBS0); conditions: read-out: percent inhibition
JAK1 = JAK1 (Homo sapiens (Human), UniProt P23458); conditions: read-out: percent inhibition
CDC2 = CDC2 (Homo sapiens (Human), UniProt P06493); conditions: read-out: percent inhibition
MST3 = MST3 (Homo sapiens (Human), UniProt Q9Y6E0); conditions: read-out: percent inhibition
Sequence of MST3 (Q9Y6E0 whole entry): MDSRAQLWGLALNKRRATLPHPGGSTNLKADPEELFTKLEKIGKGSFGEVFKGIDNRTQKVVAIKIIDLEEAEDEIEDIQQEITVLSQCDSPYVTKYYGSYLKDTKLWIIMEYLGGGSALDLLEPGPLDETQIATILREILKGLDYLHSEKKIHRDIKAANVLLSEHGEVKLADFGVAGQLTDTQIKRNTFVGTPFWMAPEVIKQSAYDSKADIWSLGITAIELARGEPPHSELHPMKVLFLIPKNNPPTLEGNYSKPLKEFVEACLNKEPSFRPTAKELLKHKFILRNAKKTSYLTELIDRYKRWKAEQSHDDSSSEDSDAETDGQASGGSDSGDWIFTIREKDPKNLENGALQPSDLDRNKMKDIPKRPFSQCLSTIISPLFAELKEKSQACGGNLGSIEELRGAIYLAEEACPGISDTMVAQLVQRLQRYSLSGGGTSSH

ULK3 = ULK3 (Homo sapiens (Human), UniProt Q6PHR2); conditions: read-out: percent inhibition

Cn1cc(-c2c[nH]c3ncnc(N4CCOCC4)c23)cc1C#N [Example 217, 1-methyl-4-[4-(morpholin-4-yl)-7H-pyrrolo[2,3-d]pyrimidin-5-yl]-1H-pyrrole-2-carbonitrile]
inhibition at 0.1 µM (FRAP; FRAP, 0.1 μM): 0.7%
inhibition at 1 µM (FRAP; FRAP, 1 μM): 0.9%
inhibition at 0.1 µM (smMLCK; smMLCK, 0.1 μM): 1.7%
inhibition at 1 µM (smMLCK; smMLCK, 1 μM): 3.5%
inhibition at 0.1 µM (JAK2 domain2; JAK2 domain2, 0.1 μM): 4.8%
inhibition at 1 µM (JAK2 domain2; JAK2 domain2, 1 μM): -6.4%
percent inhibition (Wnk1, Wnk2, Wnk3; 0.1 μM): −6.3%
percent inhibition (Wnk1, Wnk2, Wnk3; 1 μM): −21.1%
inhibition at 0.1 µM (ZAP70; ZAP70, 0.1 μM): -25%
inhibition at 1 µM (ZAP70; ZAP70, 1 μM): -6%
inhibition at 0.1 µM (FES; FES, 0.1 μM): 8.4%
inhibition at 1 µM (FES; FES, 1 μM): 6.2%
percent inhibition (p70S6K, p70S6Kb; 0.1 μM): 5.5%
percent inhibition (p70S6K, p70S6Kb; 1 μM): 5.4%
inhibition at 0.1 µM (IKKb; IKKb, 0.1 μM): 7.1%
inhibition at 1 µM (IKKb; IKKb, 1 μM): 6.5%
inhibition at 0.1 µM (LYN; LYN, 0.1 μM): 8.3%
inhibition at 1 µM (LYN; LYN, 1 μM): -19.2%
inhibition at 0.1 µM (IKKa; IKKa, 0.1 μM): -2.5%
inhibition at 1 µM (IKKa; IKKa, 1 μM): -3.7%
percent inhibition (ABL, ARG; 0.1 μM): 4.6%
percent inhibition (ABL, ARG; 1 μM): −1.6%
inhibition at 0.1 µM (TLK1; TLK1, 0.1 μM): 7.6%
inhibition at 1 µM (TLK1; TLK1, 1 μM): 16.7%
percent inhibition ([1]; 0.1 μM): −1.2%
percent inhibition ([1]; 1 μM): 7.7%
inhibition at 0.1 µM (IRAK1; IRAK1, 0.1 μM): -1.7%
inhibition at 1 µM (IRAK1; IRAK1, 1 μM): 7.5%
inhibition at 0.1 µM (CaMK2d; CaMK2d, 0.1 μM): 9.8%
inhibition at 1 µM (CaMK2d; CaMK2d, 1 μM): 16.1%
inhibition at 0.1 µM (ACK; ACK, 0.1 μM): -9.8%
inhibition at 1 µM (ACK; ACK, 1 μM): -19.5%
inhibition at 0.1 µM (MLKL; MLKL, 0.1 μM): 2.5%
inhibition at 1 µM (MLKL; MLKL, 1 μM): -3.3%
inhibition at 0.1 µM (PKR; PKR, 0.1 μM): -7.7%
inhibition at 1 µM (PKR; PKR, 1 μM): 1.8%
inhibition at 0.1 µM (FYN; FYN, 0.1 μM): -2.1%
inhibition at 1 µM (FYN; FYN, 1 μM): -6.8%
percent inhibition (PCTAIRE2, PCTAIRE3; 0.1 μM): −2.6%
percent inhibition (PCTAIRE2, PCTAIRE3; 1 μM): 15.1%
inhibition at 0.1 µM (SYK; SYK, 0.1 μM): -2%
inhibition at 1 µM (SYK; SYK, 1 μM): -5.1%
inhibition at 0.1 µM (KHS1; KHS1, 0.1 μM): 10.7%
inhibition at 1 µM (KHS1; KHS1, 1 μM): 7.6%
inhibition at 0.1 µM (Erk5; Erk5, 0.1 μM): -2.6%
inhibition at 1 µM (Erk5; Erk5, 1 μM): -5.4%
inhibition at 0.1 µM (PAN3; PAN3, 0.1 μM): 5.6%
inhibition at 1 µM (PAN3; PAN3, 1 μM): -7.5%
percent inhibition (Wnk1, Wnk2, Wnk4; 0.1 μM): 2.2%
percent inhibition (Wnk1, Wnk2, Wnk4; 1 μM): −5.4%
inhibition at 0.1 µM (PKD2; PKD2, 0.1 μM): 5.8%
inhibition at 1 µM (PKD2; PKD2, 1 μM): 4.5%
inhibition at 0.1 µM (FGR; FGR, 0.1 μM): -1.2%
inhibition at 1 µM (FGR; FGR, 1 μM): -0.5%
inhibition at 0.1 µM (LKB1; LKB1, 0.1 μM): -5.3%
inhibition at 1 µM (LKB1; LKB1, 1 μM): 2.4%
inhibition at 0.1 µM (FAK; FAK, 0.1 μM): 8.1%
inhibition at 1 µM (FAK; FAK, 1 μM): 17.4%
inhibition at 0.1 µM (ILK; ILK, 0.1 μM): -6.3%
inhibition at 1 µM (ILK; ILK, 1 μM): -3.8%
inhibition at 0.1 µM (SGK3; SGK3, 0.1 μM): 8.5%
inhibition at 1 µM (SGK3; SGK3, 1 μM): 16.9%
inhibition at 0.1 µM (p70S6Kb; p70S6Kb, 0.1 μM): -2.2%
inhibition at 1 µM (p70S6Kb; p70S6Kb, 1 μM): -16.7%
inhibition at 0.1 µM (JAK1; JAK1, 0.1 μM): -3%
inhibition at 1 µM (JAK1; JAK1, 1 μM): 11.4%
inhibition at 0.1 µM (CDC2; CDC2, 0.1 μM): 28.7%
inhibition at 1 µM (CDC2; CDC2, 1 μM): 24.4%
inhibition at 0.1 µM (MST3; MST3, 0.1 μM): 6.7%
inhibition at 1 µM (MST3; MST3, 1 μM): 10.9%
inhibition at 0.1 µM (ULK3; ULK3, 0.1 μM): -8.6%
inhibition at 1 µM (ULK3; ULK3, 1 μM): 17.4%

N#Cc1cccc(-c2c[nH]c3ncnc(N4CCOCC4)c23)c1 [Example 4, 3-[4-(Morpholin-4-yl)-7H-pyrrolo[2,3-d]pyrimidin-5-yl]benzonitrile]
inhibition at 0.1 µM (FRAP): -20.7%
inhibition at 1 µM (FRAP): 9.8%
inhibition at 0.1 µM (smMLCK): -21.6%
inhibition at 1 µM (smMLCK): 16.2%
inhibition at 0.1 µM (JAK2 domain2): 0.7%
inhibition at 1 µM (JAK2 domain2): 16.4%
percent inhibition (Wnk1, Wnk2, Wnk3; 0.1 μM): 1.7%
percent inhibition (Wnk1, Wnk2, Wnk3; 1 μM): −6%
inhibition at 0.1 µM (ZAP70): -4.9%
inhibition at 1 µM (ZAP70): 6.8%
inhibition at 0.1 µM (FES): -9.2%
inhibition at 1 µM (FES): 6.9%
percent inhibition (p70S6K, p70S6Kb; 0.1 μM): −10.5%
percent inhibition (p70S6K, p70S6Kb; 1 μM): −9.6%
inhibition at 0.1 µM (IKKb): -15.5%
inhibition at 1 µM (IKKb): -15.8%
inhibition at 0.1 µM (LYN): -5.4%
inhibition at 1 µM (LYN): 0.8%
inhibition at 0.1 µM (IKKa): -12.1%
inhibition at 1 µM (IKKa): -6.6%
percent inhibition (ABL, ARG; 0.1 μM): −29.4%
percent inhibition (ABL, ARG; 1 μM): −0.9%
inhibition at 0.1 µM (TLK1): -4.6%
inhibition at 1 µM (TLK1): -3.7%
percent inhibition ([1]; 0.1 μM): −3.2%
percent inhibition ([1]; 1 μM): 14.8%
inhibition at 0.1 µM (IRAK1): -2.9%
inhibition at 1 µM (IRAK1): 2.1%
inhibition at 0.1 µM (CaMK2d): -0.4%
inhibition at 1 µM (CaMK2d): 10.8%
inhibition at 0.1 µM (ACK): 0.8%
inhibition at 1 µM (ACK): 7.7%
inhibition at 0.1 µM (MLKL): -10.1%
inhibition at 1 µM (MLKL): 14.5%
inhibition at 0.1 µM (PKR): -3.3%
inhibition at 1 µM (PKR): 7.2%
inhibition at 0.1 µM (FYN): -1.9%
inhibition at 1 µM (FYN): -9.1%
percent inhibition (PCTAIRE2, PCTAIRE3; 0.1 μM): −5.4%
percent inhibition (PCTAIRE2, PCTAIRE3; 1 μM): 24.7%
inhibition at 0.1 µM (SYK): -8.3%
inhibition at 1 µM (SYK): 7.2%
inhibition at 0.1 µM (KHS1): -25.9%
inhibition at 1 µM (KHS1): 12.9%
inhibition at 0.1 µM (Erk5): -5%
inhibition at 1 µM (Erk5): -6.3%
inhibition at 0.1 µM (PAN3): -0.2%
inhibition at 1 µM (PAN3): 15.1%
percent inhibition (Wnk1, Wnk2, Wnk4; 0.1 μM): −1.9%
percent inhibition (Wnk1, Wnk2, Wnk4; 1 μM): −1.3%
inhibition at 0.1 µM (PKD2): 0.7%
inhibition at 1 µM (PKD2): 9.4%
inhibition at 0.1 µM (FGR): -10.8%
inhibition at 1 µM (FGR): 1.7%
inhibition at 0.1 µM (LKB1): 3.5%
inhibition at 1 µM (LKB1): 16.5%
inhibition at 0.1 µM (FAK): -8.9%
inhibition at 1 µM (FAK): 11.1%
inhibition at 0.1 µM (ILK): -8.9%
inhibition at 1 µM (ILK): -31.6%
inhibition at 0.1 µM (SGK3): -5.5%
inhibition at 1 µM (SGK3): -0.8%
inhibition at 0.1 µM (p70S6Kb): 11.4%
inhibition at 1 µM (p70S6Kb): 18.5%
inhibition at 0.1 µM (JAK1): -9.3%
inhibition at 1 µM (JAK1): 5%
inhibition at 0.1 µM (CDC2): -6.7%
inhibition at 1 µM (CDC2): 12.9%
inhibition at 0.1 µM (MST3): 0.1%
inhibition at 1 µM (MST3): 46.2%
inhibition at 0.1 µM (ULK3): 3.1%
inhibition at 1 µM (ULK3): 5.2%
